Measurements taken from patent US8193191B2, “Urotensin II receptor antagonists” (Janssen Pharmaceutica N.V., priority 2006, dated 2012).
Values joined by “and” are separate entries in the source; they are usually repeats but may differ in a detail not shown here. Equal values may be shown once. Read-outs that look alike come from different tables or passages of the source.

Key:
[1] = biological target: T1, rat GPR14 (U-II receptor) (Rattus norvegicus, UniProt P49684); test: Rat UII Calcium Mobilization FLIPR Assay; type: cell-based; settings: for inhibition at 10 µM / inhibition at 50 µM: CHO, 5 min, agonist-induced Ca2+ mobilization (FLIPR), CHO cells with rat UII receptor; for inhibition at 10 µM: 10 μM compound, read-out: % I @ 10; for inhibition at 50 µM: 50 μM compound, read-out: % I @ 50
T1 construct: expressed in transfected cells
T1 sequence (P49684 1-386): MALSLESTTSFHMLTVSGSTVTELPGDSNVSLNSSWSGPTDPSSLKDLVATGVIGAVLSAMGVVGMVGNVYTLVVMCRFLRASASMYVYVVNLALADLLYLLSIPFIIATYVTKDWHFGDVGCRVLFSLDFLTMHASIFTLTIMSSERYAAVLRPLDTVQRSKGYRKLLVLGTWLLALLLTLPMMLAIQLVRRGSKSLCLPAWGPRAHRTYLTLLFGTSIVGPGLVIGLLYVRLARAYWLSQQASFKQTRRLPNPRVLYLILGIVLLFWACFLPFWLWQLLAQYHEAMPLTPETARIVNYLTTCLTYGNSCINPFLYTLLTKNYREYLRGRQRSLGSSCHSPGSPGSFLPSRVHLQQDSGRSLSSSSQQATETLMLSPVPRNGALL
Procedure, shortened: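 CHO cells stably expressing rat U-II receptor, seeded 24 h before assay, were loaded with FLIPR calcium dye in HBSS/20 mM HEPES/0.1% BSA/2.5 mM probenecid, pH 7.4, for 1 h at 37° C. Calcium mobilization then read by FLIPR at 23° C.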

[2] = biological target: T2, endogenous human UII receptor (Homo sapiens, UniProt Q9UKP6); test: Human Radioligand Binding Assay ((^125I)-U-II binding to human skeletal muscle myoblasts)
T2 sequence (Q9UKP6 1-389): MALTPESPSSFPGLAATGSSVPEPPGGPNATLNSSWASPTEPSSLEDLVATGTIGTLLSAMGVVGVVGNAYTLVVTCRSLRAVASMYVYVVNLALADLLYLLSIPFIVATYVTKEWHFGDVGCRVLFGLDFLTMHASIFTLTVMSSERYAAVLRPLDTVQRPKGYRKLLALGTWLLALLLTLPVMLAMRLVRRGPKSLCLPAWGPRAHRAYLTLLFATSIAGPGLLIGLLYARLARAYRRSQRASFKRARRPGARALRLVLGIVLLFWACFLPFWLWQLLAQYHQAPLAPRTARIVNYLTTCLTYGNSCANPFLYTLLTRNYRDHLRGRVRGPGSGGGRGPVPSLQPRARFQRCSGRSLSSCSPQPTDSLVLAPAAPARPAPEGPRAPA

[3] = Inhibition of Acetyl-cyclic[Cys-Phe-Trp-Lys-(2-Nal)-Cys]-NH2 induced Ca2+ mobilization (FLIPR) in CHO cells transfected with rat UII receptor, read-out: IC50
[4] = Inhibition of human UII binding to human skeletal muscle myoblasts containing endogenous human UII receptor
[5] = average value for the compound tested, read-out: Rat UII FLIPR Average IC50

Row | Structure (SMILES) | inhibition at 10 µM [1] | inhibition at 50 µM [1] | IC50 [1, 3] | Ki [2] | Ki [2, 4] | IC50 [1, 5] | IC50 ([1]; IC50 (μM), Inhibition of Acetyl-cyclic[Cys-Phe-Trp-Lys-(2-Nal)-Cys]-NH2 induced Ca2+ mobilization (FLIPR) in CHO cells transfected with rat UII receptor)
1 | COc1ccc(CN2C(=O)c3cccc(C4=CCN(Cc5ccccc5)CC4)c3C2=O)cc1OC [Cpd 19, 4-(1-benzyl-1,2,3,6-tetrahydro-pyridin-4-yl)-2-(3,4-dimethoxy-benzyl)-isoindole-1,3-dione] | 94% | 100% | 1.5 µM | 5200 nM | – | – | –
2 | COc1ccc(C(CN(C)C)N2C(=O)c3cccc(N4CCN([C@H](C)c5ccccc5)CC4)c3C2=O)cc1OC (stereo partly drawn) [Cpd 63, 2-[1-(3,4-dimethoxy-phenyl)-2-dimethylamino-ethyl]-4-[4-(1R)-(1-phenyl-ethyl)-piperazin-1-yl]-isoindole-1,3-dione] | 102% | 102% | 0.4 µM | 2800 nM | – | – | –
3 | COc1ccc(C(CN)N2C(=O)c3cccc(N4CCN([C@H](C)c5ccccc5)CC4)c3C2=O)cc1OC (stereo partly drawn) [Cpd 64, 2-[2-amino-1-(3,4-dimethoxy-phenyl)-ethyl]-4-[4-(1R)-(1-phenyl-ethyl)-piperazin-1-yl]-isoindole-1,3-dione] | 101% | 98% | 0.3 µM | 700 nM | – | – | –
4 | COc1ccc(C(CCCNC(=O)OC(C)(C)C)N2C(=O)c3cccc(N4CCN([C@H](C)c5ccccc5)CC4)c3C2=O)cc1OC (stereo partly drawn) [Cpd 65, (4-(3,4-dimethoxy-phenyl)-4-{1,3-dioxo-4-[4-(1R)-(1-phenyl-ethyl)-piperazin-1-yl]-1,3-dihydro-isoindol-2-yl}-butyl)-carbamic acid tert-butyl ester] | 103% | 102% | 0.2 µM | – | 200 nM | – | –
5 | COc1ccc(C(CCCN)N2C(=O)c3cccc(N4CCN([C@H](C)c5ccccc5)CC4)c3C2=O)cc1OC (stereo partly drawn) [Cpd 66, 2-[4-amino-1-(3,4-dimethoxy-phenyl)-butyl]-4-[4-(1R)-(1-phenyl-ethyl)-piperazin-1-yl]-isoindole-1,3-dione] | 101% | 97% | 0.2 µM | – | 3200 nM | – | –
6 | COc1ccc(C(CCCNS(C)(=O)=O)N2C(=O)c3cccc(N4CCN([C@H](C)c5ccccc5)CC4)c3C2=O)cc1OC (stereo partly drawn) [Cpd 67, N-(4-(3,4-dimethoxy-phenyl)-4-{1,3-dioxo-4-[4-(1R)-(1-phenyl-ethyl)-piperazin-1-yl]-1,3-dihydro-isoindol-2-yl}-butyl)-methanesulfonamide] | 101% | 99% | 0.1 µM | 1400 nM | – | – | 0.11 µM
7 | COc1ccc(C(CCCNS(=O)(=O)c2cccs2)N2C(=O)c3cccc(N4CCN([C@H](C)c5ccccc5)CC4)c3C2=O)cc1OC (stereo partly drawn) [Cpd 68, thiophene-2-sulfonic acid (4-(3,4-dimethoxy-phenyl)-4-{1,3-dioxo-4-[4-(1R)-(1-phenyl-ethyl)-piperazin-1-yl]-1,3-dihydro-isoindol-2-yl}-butyl)-amide] | 98% | 99% | 0.1 µM and 0.08 µM | – | 76 nM | – | –
8 | COc1ccc(C(CCCCNC(=O)OC(C)(C)C)N2C(=O)c3cccc(N4CCN([C@H](C)c5ccccc5)CC4)c3C2=O)cc1OC (stereo partly drawn) [Cpd 69, (5-(3,4-dimethoxy-phenyl)-5-{1,3-dioxo-4-[4-(1R)-(1-phenyl-ethyl)-piperazin-1-yl]-1,3-dihydro-isoindol-2-yl}-pentyl)-carbamic acid tert-butyl ester] | 11% | 52% | 65 µM | > 10000 nM | – | – | –
9 | COc1ccc(C(CCCCN)N2C(=O)c3cccc(N4CCN([C@H](C)c5ccccc5)CC4)c3C2=O)cc1OC (stereo partly drawn) [Cpd 70, 2-[5-amino-1-(3,4-dimethoxy-phenyl)-pentyl]-4-[4-(1R)-(1-phenyl-ethyl)-piperazin-1-yl]-isoindole-1,3-dione] | 102% | 101% | 0.3 µM and 0.27 µM | 5400 nM | – | – | –
10 | COc1ccc(CN2C(=O)c3cccc(C4CCN(Cc5ccccc5)CC4)c3C2=O)cc1OC [Cpd 76, 4-(1-benzyl-piperidin-4-yl)-2-(3,4-dimethoxy-benzyl)-isoindole-1,3-dione] | 98% | 99% | 0.96 µM | 1500 nM | – | – | –
11 | COc1ccc(CN2C(=O)c3cccc(N4CCN(CC5CCCC5)CC4)c3C2=O)cc1OC [Cpd 80, 4-(4-cyclopentylmethyl-piperazin-1-yl)-2-(3,4-dimethoxy-benzyl)-isoindole-1,3-dione] | – | – | – | > 10000 nM | – | 1.3 µM | –

The next lines start with results.

Row | inhibition at 10 µM [1] | inhibition at 50 µM [1] | IC50 [1, 3] | Ki [2] | Ki [2, 4] | IC50 [1, 5] | Structure (SMILES) | IC50 ([1]; IC50 (μM), Inhibition of Acetyl-cyclic[Cys-Phe-Trp-Lys-(2-Nal)-Cys]-NH2 induced Ca2+ mobilization (FLIPR) in CHO cells transfected with rat UII receptor)
12 | 99% | 101% | 1.1 µM | 3500 nM | – | – | COc1ccc(CN2C(=O)c3cccc(N4CCN(Cc5cccc(F)c5)CC4)c3C2=O)cc1OC [Cpd 17, 2-(3,4-dimethoxy-benzyl)-4-[4-(3-fluoro-benzyl)-piperazin-1-yl]-isoindole-1,3-dione] | –
13 | 98% | 101% | 1.4 µM | 2900 nM | – | – | CCOc1ccc(CN2C(=O)c3cccc(N4CCN([C@H](C)c5ccccc5)CC4)c3C2=O)cc1OC [Cpd 18, 2-(4-ethoxy-3-methoxy-benzyl)-4-[4-(1R)-(1-phenyl-ethyl)-piperazin-1-yl]-isoindole-1,3-dione] | –
14 | 75% | 101% | 4.2 µM | 5500 nM | – | – | COc1ccc(CN2C(=O)c3cccc(N4CCN(C(C)(C)c5ccccc5)CC4)c3C2=O)cc1OC [Cpd 28, 2-(3,4-dimethoxy-benzyl)-4-[4-(1-methyl-1-phenyl-ethyl)-piperazin-1-yl]-isoindole-1,3-dione] | –
15 | – | – | – | 7200 nM | – | 0.85 µM | COc1ccc(CN2C(=O)c3cccc(N4CCN(Cc5ccc(C)o5)CC4)c3C2=O)cc1OC [Cpd 77, 2-(3,4-dimethoxy-benzyl)-4-[4-(5-methyl-furan-2-ylmethyl)-piperazin-1-yl]-isoindole-1,3-dione] | –
16 | – | – | – | 2600 nM | – | 0.27 µM | COc1ccc(CN2C(=O)c3cccc(N4CCN(Cc5ccoc5)CC4)c3C2=O)cc1OC [Cpd 78, 2-(3,4-dimethoxy-benzyl)-4-(4-furan-3-ylmethyl-piperazin-1-yl)-isoindole-1,3-dione] | –
17 | – | – | – | > 10000 nM | – | 1.2 µM | COc1ccc(CN2C(=O)c3cccc(N4CCN(Cc5cccnc5)CC4)c3C2=O)cc1OC [Cpd 79, 2-(3,4-dimethoxy-benzyl)-4-(4-pyridin-3-ylmethyl-piperazin-1-yl)-isoindole-1,3-dione] | –
18 | – | – | – | > 10000 nM | – | 1.4 µM | COc1ccc(CN2C(=O)c3cccc(N4CCN(Cc5cccs5)CC4)c3C2=O)cc1OC [Cpd 81, 2-(3,4-dimethoxy-benzyl)-4-(4-thiophen-2-ylmethyl-piperazin-1-yl)-isoindole-1,3-dione] | –
19 | – | – | – | 1600 nM | – | 0.23 µM | COc1ccc(CN2C(=O)c3cccc(N4CCN(Cc5ccsc5)CC4)c3C2=O)cc1OC [Cpd 83, 2-(3,4-dimethoxy-benzyl)-4-(4-thiophen-3-ylmethyl-piperazin-1-yl)-isoindole-1,3-dione] | –
20 | – | – | – | 3600 nM | – | 2.2 µM | COc1ccc(CN2C(=O)c3cccc(N4CCN(Cc5ccccc5O)CC4)c3C2=O)cc1OC [Cpd 85, 2-(3,4-dimethoxy-benzyl)-4-[4-(2-hydroxy-benzyl)-piperazin-1-yl]-isoindole-1,3-dione] | –
21 | – | – | – | 1300 nM | – | 0.29 µM | C/C=C(\C)CN1CCN(c2cccc3c2C(=O)N(Cc2ccc(OC)c(OC)c2)C3=O)CC1 [Cpd 86, (E)-2-(3,4-dimethoxy-benzyl)-4-[4-(2-methyl-but-2-enyl)-piperazin-1-yl]-isoindole-1,3-dione] | –
